From publication PMC4861708 (Frontiers in Cell and Developmental Biology, 2016)
Converted amounts (≈) assume the structure as drawn. Where a SMILES comes first, the peptide text is derived from it. [ ]: non-standard residue; d: D form. The star is where a group is joined. Orn(α-tetramethylguanidino) = CN(C)C(=N[C@@H](CCCN)C(=O)*)N(C)C; Orn = NCCC[C@H](N)C(=O)O

Legend:
[1] = system: P. aeruginosa DSM 9644; format: cell-based, Pseudomonas aeruginosa; details: DSM 9644, 24 h
How it was run: (§1)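 Broth microdilution MIC: P. aeruginosa strains in 50 or 100% MHB, K. pneumoniae in TSB; peptides 512–4 μg/mL final. Inoculum from 1.5 × 10^7 cells/mL suspension, also high density 5 × 10^8 cells/mL; 37°C, 24 h, growth read at OD595.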

[2] = system: HeLa cells; experiment: Flow cytometry, cell uptake of Cf-labeled peptides; format: cell-based; details: flow cytometry (abstract)
Experimental: HeLa cells (50,000 for endocytosis inhibition and 70,000 for uptake kinetics) suspended in DMEM/F-12 medium (300 μL; see above) were seeded into 48-well plates (PS, sterile, flat bottom) and incubated (23 ± 1 h) using the conditions described above. Cells were washed twice with PBS (300 μL/well) and fresh medium was added (144 μL).
Peptide solutions (6 μL; 1 mmol/L in H2O) were added to achieve a concentration of 40 μmol/L at different time points. Cells were washed three times with PBS (300 μL/well), treated with trypsin (75 μL; 0.05% w/v trypsin, 5 min, 37°C), rinsed off the plate using cold PBS (600 μL/well), and trypsin was removed by two washing steps (400 × g, 4°C, 4 min, 600 μL PBS each). Cells were suspended in PBS (0.1 mL) containing eFluor660 (1000 × diluted in PBS) and incubated on ice in the dark. After 30 min, cells were washed with cold PBS twice, suspended in formaldehyde (100 μL; 2% w/v in PBS), incubated (15 min, RT), washed (200 μL PBS), stored in FACS buffer (200 μL; 3% FBS, 0.1% NaN3 in PBS) overnight, and analyzed on a FACSCalibur (Becton Dickinson, New Jersey, USA). Alternatively, cells were fixed directly without prior eFluor660 staining.

[3] = in vitro; format: cell-based; details: human
[4] = system: P. aeruginosa DSM 3227 (ATCC 19429); format: cell-based, Pseudomonas aeruginosa; details: DSM 3227, 24 h
How it was run: as §1

[5] = parameters: method as in unpublished data; details: four intraperitoneal injections of 80 mg/kg per day; ref unpublished data; cited from earlier work
[6] = system: HeLa cells; parameters: method as in Berthold et al., 2013; Bluhm et al., 2015; details: ref Berthold et al., 2013, Bluhm et al., 2015; cited from earlier work
[7] = system: Primary rat cardiomyocytes; parameters: method as in Berthold et al., 2013; Bluhm et al., 2015; details: ref Berthold et al., 2013, Bluhm et al., 2015; cited from earlier work
[8] = system: Escherichia coli ATCC25922; parameters: method as in unpublished data; details: mouse infection models with E. coli ATCC25922, doses of only 0.6 mg/kg; ref unpublished data; cited from earlier work

## CC(C)C[C@H](NC(=O)[C@H](CCCNC(=N)N)NC(=O)[C@@H]1CCCN1C(=O)[C@H](Cc1c[nH]cn1)NC(=O)[C@@H]1CCCN1C(=O)[C@@H]1CCCN1C(=O)[C@H](CCCNC(=N)N)NC(=O)[C@@H]1CCCN1C(=O)[C@H](CCCNC(=N)N)NC(=O)[C@@H]1CCCN1C(=O)[C@H](CCCN)NC(=O)[C@H](Cc1ccc(O)cc1)NC(=O)[C@@H](NC(=O)[C@@H]1CCCN1C(=O)[C@H](CCCNC(=N)N)NC(=O)[C@H](CCCN)NC(=O)[C@H](Cc1c[nH]c2ccccc12)NC(=O)[C@H](CCCN)NC(=O)[C@H](Cc1c[nH]c2ccccc12)NC(=O)[C@H](CCCN)NC(=O)[C@H](Cc1c[nH]c2ccccc12)NC(=O)[C@H](CCCN)N=C(N(C)C)N(C)C)C(C)C)C(=O)O [Api794, gu-O(WO)3RPVYOPRPRPPHPRL-OH] ({Orn(α-tetramethylguanidino)}-W[Orn]W[Orn]W[Orn]RPVY[Orn]PRPRPPHPRL-OH)
[1]
  MIC P. aeruginosa DSM 9644: 16 µg/mL (≈ 5.4 µM)
[2]
  higher uptake compared with Api795: 50%

## CC[C@H](C)[C@H](NC(=O)[C@H](CCCN)N=C(N(C)C)N(C)C)C(=O)N[C@@H](CCCN)C(=O)N[C@H](C(=O)N[C@@H](CCCN)C(=O)N[C@@H](CCCNC(=N)N)C(=O)N1CCC[C@H]1C(=O)N[C@H](C(=O)N[C@@H](Cc1ccc(O)cc1)C(=O)N[C@@H](CCCN)C(=O)N1CCC[C@H]1C(=O)N[C@@H](CCCNC(=N)N)C(=O)N1CCC[C@H]1C(=O)N[C@@H](CCCNC(=N)N)C(=O)N1CCC[C@H]1C(=O)N1CCC[C@H]1C(=O)N[C@@H](Cc1c[nH]cn1)C(=O)N1CCC[C@H]1C(=O)N[C@@H](CCCNC(=N)N)C(=O)N[C@@H](CC(C)C)C(=O)O)C(C)C)[C@@H](C)CC [Api795, gu-O(IO)2RPVYOPRPRPPHPRL-OH] ({Orn(α-tetramethylguanidino)}-I[Orn]I[Orn]RPVY[Orn]PRPRPPHPRL-OH)
[3]
  viability at 24 h, 0.6 g/L: 78 ± 14%

## CC[C@H](C)[C@H](NC(=O)[C@H](Cc1ccc(O)cc1)NC(=O)[C@@H](NC(=O)[C@@H]1CCCN1C(=O)[C@H](CCCNC(=N)N)NC(=O)[C@H](CC(N)=O)NC(=O)[C@H](CC(N)=O)NC(=O)[C@H](CCCN)N=C(N(C)C)N(C)C)C(C)C)C(=O)N1CCC[C@H]1C(=O)N[C@@H](CCCNC(=N)N)C(=O)N1CCC[C@H]1C(=O)N[C@@H](CCCNC(=N)N)C(=O)N1CCC[C@H]1C(=O)N1CCC[C@H]1C(=O)N[C@@H](Cc1c[nH]cn1)C(=O)N1CCC[C@H]1C(=O)N[C@@H](CCCNC(=N)N)C(=O)N[C@@H](CC(C)C)C(=O)O [Api137, gu-ONNRPVYIPRPRPPHPRL-OH, reference compound] ({Orn(α-tetramethylguanidino)}-NNRPVYIPRPRPPHPRL-OH)
[4]
  MIC P. aeruginosa DSM 3227: >256 µg/mL
[5]
  in vivo tolerance, acute toxic effects: no acute toxic effects
[6]
  IC50 on cell viability: >600 µg/mL
[7]
  IC50 on cell viability: >600 µg/mL
[8]
  survival rate: 100%
